What was measured:
Assay type in all cases: ADME
Settings in all cases: buffer
[1] = Half life at pH 8.1
[2] = Half life at pH 5.9
[3] = Half life at pH 7.8

| Structure (SMILES) | half-life [1] [min] | half-life [2] [min] | half-life [3] [min] |
| --- | --- | --- | --- |
| CC(=O)C(N)C(=O)O (stereo not drawn) | 15.2 | 8.57 | – |
| NC(C(=O)O)C(=O)COP(=O)(O)O (stereo not drawn) | – | – | 10 |
